In patent US20060069132A1, “Azolecarboxamide herbicides” (priority 2004, published 2006):

Tests used:
giant foxtail [1] = experiment: Test B pre-/postemergence herbicide test; assay type: in vivo, Setaria faberi; details: for Foxtail, Giant plant response rating: postemergence, scale 0 (no effect) to 100 (complete control)
Summary of the method: (§1)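 Evaluation is visual, comparing treated with control plants on a scale where 0 means no effect and 100 means full control. Treatments were preemergence, or postemergence on seedlings 2–18 cm tall, and held 13–15 days in the greenhouse.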

giant foxtail [2] = experiment: Test A pre-/postemergence herbicide test; assay type: in vivo, Setaria faberi
Summary of the method: (§2)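 Visual injury rating on a 0–100 scale (0 no effect, 100 complete control) versus untreated controls, about ten days after treatment in greenhouse. Pre: directed soil spray onto seeded sandy loam. Post: spray to runoff on plants 2–10 cm tall at one- to two-leaf stage.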

large crabgrass [3] = experiment: Test A pre-/postemergence herbicide test; assay type: in vivo, Digitaria sanguinalis
Summary of the method: as §2

large crabgrass [4] = experiment: Test B pre-/postemergence herbicide test; assay type: in vivo, Digitaria sanguinalis; details: for Crabgrass, Large plant response rating: postemergence, scale 0 (no effect) to 100 (complete control)
Summary of the method: as §1

lambsquarters = experiment: Test B pre-/postemergence herbicide test; assay type: in vivo, Chenopodium album; details: for Lambsquarters plant response rating: postemergence, scale 0 (no effect) to 100 (complete control)
Summary of the method: as §1

blackgrass = experiment: Test B postemergence herbicide test; assay type: in vivo, Alopecurus myosuroides; details: postemergence, visual rating, scale 0 (no effect) to 100 (complete control)
Summary of the method: (§3)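 Visual ratings, 0 (no effect) to 100 (complete control), made versus controls after 13–15 d greenhouse. Paddy plants treated at 2-leaf stage; postemergence plants at 1- to 4-leaf stage, 2–18 cm tall.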

rice [5] = experiment: Test B pre-/postemergence herbicide test; assay type: in vivo, Oryza sativa; details: 0 = no effect, 100 = complete control, preemergence
Summary of the method: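 Plants compared with untreated controls 13–15 days post-treatment and given a visual 0–100 injury score. Applications: preemergence to seeds; postemergence at 1- to 4-leaf (2–18 cm); paddy species flooded, 2-leaf stage. Vehicle non-phytotoxic, surfactant included.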

velvetleaf [6] = experiment: Test B pre-/postemergence herbicide test; assay type: in vivo, Abutilon theophrasti; details: for Velvetleaf plant response rating: postemergence, scale 0 (no effect) to 100 (complete control)
Summary of the method: as §1

morningglory [7] = experiment: Test A pre-/postemergence herbicide test; assay type: in vivo, Ipomoea spp.
Summary of the method: as §2

cocklebur = experiment: Test B pre-/postemergence herbicide test; assay type: in vivo, Xanthium strumarium; details: for Cocklebur plant response rating: postemergence, scale 0 (no effect) to 100 (complete control)
Summary of the method: (§4)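 Visual rating, 0 (no effect) to 100 (complete control), versus untreated controls after 13–15 d in greenhouse. Pre- and postemergence applications (postemergence plants 2–18 cm, 1–4 leaves); flooded paddy arm at 2-leaf stage. Compounds in non-phytotoxic solvent plus surfactant.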

barnyardgrass [8] = experiment: Test B pre-/postemergence herbicide test; assay type: in vivo, Echinochloa crus-galli; details: for Barnyardgrass plant response rating: postemergence, scale 0 (no effect) to 100 (complete control)
Summary of the method: as §4

barnyardgrass [9] = experiment: Test B flooded paddy test; assay type: in vivo, Echinochloa crus-galli; details: 1000 g ai/ha, visual rating, scale 0 to 100 (0 no effect, 100 complete control), 13 to 15 days
Summary of the method: as §3

morningglory [10] = experiment: Test B pre-/postemergence herbicide test; assay type: in vivo, Ipomoea coccinea; details: for Morningglory plant response rating: postemergence, scale 0 (no effect) to 100 (complete control)
Summary of the method: as §4

wild oat = experiment: Test B postemergence herbicide test; assay type: in vivo, Avena fatua; details: postemergence, visual rating, scale 0 (no effect) to 100 (complete control)
Summary of the method: (§5)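 Formulated test chemicals went onto postemergence plants measuring 2 to 18 cm, at one to four leaves. For the paddy assay, species had reached two leaves. Scoring took place 13–15 days later by eye, relative to untreated plants, using 0 for no effect up to 100 for full control.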

ducksalad = experiment: Test B flooded paddy test; assay type: in vivo, Heteranthera limosa; details: 1000 g ai/ha, visual rating, scale 0 to 100 (0 no effect, 100 complete control), 13 to 15 days
Summary of the method: as §3

barnyardgrass [11] = experiment: Test A pre-/postemergence herbicide test; assay type: in vivo, Echinochloa crus-galli
Summary of the method: as §2

velvetleaf [12] = experiment: Test A pre-/postemergence herbicide test; assay type: in vivo, Abutilon theophrasti
Summary of the method: as §2

wheat = experiment: Test B postemergence herbicide test; assay type: in vivo, Triticum aestivum; design: key to Wheat plant response rating: 0 = no effect, 100 = complete control; details: postemergence, visual rating, scale 0 (no effect) to 100 (complete control)
Summary of the method: as §5

corn = experiment: Test B pre-/postemergence herbicide test; assay type: in vivo, Zea mays; details: for Corn plant response rating: postemergence, scale 0 (no effect) to 100 (complete control)
Summary of the method: as §1

[13] = tested on: small flower umbrella sedge; experiment: Test B flooded paddy test; assay type: in vivo, Cyperus difformis; details: 1000 g ai/ha, visual rating, scale 0 to 100 (0 no effect, 100 complete control), 13 to 15 days
Summary of the method: as §3

Surinam grass = experiment: Test B pre-/postemergence herbicide test; assay type: in vivo, Urochloa decumbens; details: for Surinam Grass plant response rating: postemergence, scale 0 (no effect) to 100 (complete control)
Summary of the method: as §1

pigweed = experiment: Test B pre-/postemergence herbicide test; assay type: in vivo, Amaranthus retroflexus; details: for Pigweed plant response rating: postemergence, scale 0 (no effect) to 100 (complete control)
Summary of the method: as §1

redroot pigweed = experiment: Test A pre-/postemergence herbicide test; assay type: in vivo, Amaranthus retroflexus
Summary of the method: as §2

rice [14] = experiment: Test B flooded paddy test; assay type: in vivo, Oryza sativa; details: 1000 g ai/ha, visual rating, scale 0 to 100 (0 no effect, 100 complete control), 13 to 15 days
Summary of the method: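 Each value is a visual 0–100 response rating taken against controls 13 to 15 days after treatment in the greenhouse. Plants received formulated chemical postemergence at the 1- to 4-leaf stage or, in flooded paddy, at the 2-leaf stage.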

[15] = 125 g ai/ha, 0 = no effect, 100 = complete control, preemergence
[16] = 500 g ai/ha, visual rating, 0 = no effect, 100 = complete control, preemergence
[17] = Postemergence, 500 g ai/ha, 0 to 100 scale, 0 no effect, 100 complete control
[18] = Postemergence, 2000 g ai/ha, 0 to 100 scale, 0 no effect, 100 complete control
[19] = Preemergence, 2000 g ai/ha, visual rating, 0 to 100 scale (0 no effect, 100 complete control)
[20] = preemergence, 500 g ai/ha, visual injury, 0 to 100 scale (0 no effect, 100 complete control)

In the case of `CCc1nc(C(C)(C)C)sc1C(=O)Nc1cccc(C(=O)N(CC)CC)n1` [Compound 214], the “Foxtail, Giant plant response rating (0 to 100 scale)” value (giant foxtail [1]; [15]) is reported as 0, the “Plant response rating, Foxtail, Giant” value (giant foxtail [1]; [16]) is reported as 90 and the “Foxtail, Giant plant response rating” value (giant foxtail [1]; 125 g ai/ha, visual rating) is reported as 0. The “Foxtail, Giant plant response rating” value (giant foxtail [1]; 500 g ai/ha, visual rating) was 20, the “Foxtail, Giant plant response rating” value (giant foxtail [2]; [17]) was 15 and the “Plant response rating, Foxtail, Giant” value (giant foxtail [2]; [18]) was 40. For the same compound, the “Foxtail, Giant plant response rating” value (giant foxtail [2]; [19]) was 55, the “Foxtail, Giant plant response rating” value (giant foxtail [2]; [20]) was 60 and the “Crabgrass, Large plant response rating” value (large crabgrass [3]; [17]) was 5. For the same compound, the “Plant response rating, Crabgrass, Large” value (large crabgrass [3]; [18]) was 10, the “Crabgrass, Large plant response rating” value (large crabgrass [3]; [19]) was 65 and the “Crabgrass, Large plant response rating” value (large crabgrass [3]; [20]) was 55. The “Crabgrass, Large plant response rating (0 to 100 scale)” value (large crabgrass [4]; [15]) was 0, the “Plant response rating, Crabgrass, Large” value (large crabgrass [4]; [16]) was 70 and the “Crabgrass, Large plant response rating” value (large crabgrass [4]; 125 g ai/ha, visual rating) was 0. For the same compound, the “Crabgrass, Large plant response rating” value (large crabgrass [4]; 500 g ai/ha, visual rating) was 0, the “Lambsquarters plant response rating (0 to 100 scale)” value (lambsquarters; [15]) was 0 and the “Plant response rating, Lambsquarters” value (lambsquarters; [16]) was 80. For the same compound, the “Lambsquarters plant response rating” value (lambsquarters; 125 g ai/ha, visual rating) was 0, the “Lambsquarters plant response rating” value (lambsquarters; 500 g ai/ha, visual rating) was 0 and the “Blackgrass plant response rating” value (blackgrass; 125 g ai/ha) was 0. The “Blackgrass plant response rating” value (blackgrass; 500 g ai/ha) was 0, the “Rice plant response rating (0 to 100 scale)” value (rice [5]; 125 g ai/ha) was 0 and the “Plant response rating, Rice” value (rice [5]; 500 g ai/ha, visual rating) was 0. The “Velvetleaf plant response rating (0 to 100 scale)” value (velvetleaf [6]; [15]) was 0, the “Plant response rating, Velvetleaf” value (velvetleaf [6]; [16]) was 0 and the “Velvetleaf plant response rating” value (velvetleaf [6]; 125 g ai/ha, visual rating) was 0. The “Velvetleaf plant response rating” value (velvetleaf [6]; 500 g ai/ha, visual rating) was 10, the “Morningglory plant response rating” value (morningglory [7]; [17]) was 0 and the “Plant response rating, Morningglory” value (morningglory [7]; [18]) was 10. For the same compound, the “Morningglory plant response rating” value (morningglory [7]; [19]) was 30, the “Morningglory plant response rating” value (morningglory [7]; [20]) was 5 and the “Cocklebur plant response rating (0 to 100 scale)” value (cocklebur; [15]) was 0. The “Plant response rating, Cocklebur” value (cocklebur; [16]) was 0, the “Cocklebur plant response rating” value (cocklebur; 125 g ai/ha, visual rating) was 0 and the “Cocklebur plant response rating” value (cocklebur; 500 g ai/ha, visual rating) was 0. For the same compound, the “Barnyardgrass plant response rating (0 to 100 scale)” value (barnyardgrass [8]; [15]) was 0, the “Plant response rating, Barnyardgrass” value (barnyardgrass [8]; [16]) was 20 and the “Barnyardgrass plant response rating” value (barnyardgrass [8]; 125 g ai/ha, visual rating) was 0. The “Barnyardgrass plant response rating” value (barnyardgrass [8]; 500 g ai/ha, visual rating) was 0, the “Barnyardgrass plant response rating” value (barnyardgrass [9]) was 0 and the “Morningglory plant response rating (0 to 100 scale)” value (morningglory [10]; [15]) was 0. For the same compound, the “Plant response rating, Morningglory” value (morningglory [10]; [16]) was 0, the “Morningglory plant response rating” value (morningglory [10]; 125 g ai/ha, visual rating) was 0 and the “Morningglory plant response rating” value (morningglory [10]; 500 g ai/ha, visual rating) was 0. The “Oat, Wild plant response rating” value (wild oat; 125 g ai/ha) was 0, the “Oat, Wild plant response rating” value (wild oat; 500 g ai/ha) was 0 and the “Ducksalad plant response rating” value (ducksalad) was 30. The “Barnyardgrass plant response rating” value (barnyardgrass [11]; [17]) was 0, the “Plant response rating, Barnyardgrass” value (barnyardgrass [11]; [18]) was 15 and the “Barnyardgrass plant response rating” value (barnyardgrass [11]; [19]) was 30. The “Barnyardgrass plant response rating” value (barnyardgrass [11]; [20]) was 0, the “Velvetleaf plant response rating” value (velvetleaf [12]; [17]) was 15 and the “Plant response rating, Velvetleaf” value (velvetleaf [12]; [18]) was 20. For the same compound, the “Velvetleaf plant response rating” value (velvetleaf [12]; [19]) was 20, the “Velvetleaf plant response rating” value (velvetleaf [12]; [20]) was 5 and the “Wheat plant response rating” value (wheat; 125 g ai/ha) was 0. The “Wheat plant response rating” value (wheat; 500 g ai/ha) was 0, the “Corn plant response rating (0 to 100 scale)” value (corn; [15]) was 0 and the “Plant response rating, Corn” value (corn; [16]) was 0. The “Corn plant response rating” value (corn; 125 g ai/ha, visual rating) was 0, the “Corn plant response rating” value (corn; 500 g ai/ha, visual rating) was 20 and the “Sedge, Umbrella plant response rating” value [13] was 50. For the same compound, the “Surinam Grass plant response rating (0 to 100 scale)” value (Surinam grass; [15]) was 0, the “Plant response rating, Surinam Grass” value (Surinam grass; [16]) was 30 and the “Surinam Grass plant response rating” value (Surinam grass; 125 g ai/ha, visual rating) was 0. For the same compound, the “Surinam Grass plant response rating” value (Surinam grass; 500 g ai/ha, visual rating) was 10, the “Pigweed plant response rating (0 to 100 scale)” value (pigweed; [15]) was 0 and the “Plant response rating, Pigweed” value (pigweed; [16]) was 100. For the same compound, the “Pigweed plant response rating” value (pigweed; 125 g ai/ha, visual rating) was 0, the “Pigweed plant response rating” value (pigweed; 500 g ai/ha, visual rating) was 0 and the “Pigweed plant response rating” value (redroot pigweed; [17]) was 20. The “Plant response rating, Pigweed” value (redroot pigweed; [18]) was 50, the “Pigweed plant response rating” value (redroot pigweed; [19]) was 95 and the “Pigweed plant response rating” value (redroot pigweed; [20]) was 20. For the same compound, the “Rice plant response rating” value (rice [14]) was 0.
